Patent US20260001889A1, “COMPOSITIONS USEFUL FOR MODULATING SPLICING” (Skyhawk Therapeutics, Inc., priority 2022, published 2026)

What was measured:
[1] = system: ATXN3 transcripts containing exon 4; assay: ATXN3 Quantitative Splicing Assay (qPCR, E4E5 primers/probe); assay type: cell-based; settings: Homo sapiens, SK-N-MC cells, compounds for 24 h
Summary of the method: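 Exon 4-containing ATXN3 transcripts are quantified by TaqMan qPCR (E4E5 primers/probe) on cell-lysate cDNA, with total ATXN3 from the E8E9 set. Source cells: human neuroblastoma SK-N-MC, exposed for 24 h to compound at 30 μM down to 0.6 nM.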

total ATXN3 protein = assay: ATXN3 Total Protein Assay (Mesoscale Discovery, SK-N-MC cells); assay type: cell-based, Human; settings: incubation for 48 hours, MSD assay
Description: Example 35: ATXN3 Total Protein Assay
Human neuroblastoma SK-N-MC cells were seeded at 10,000 cells/well in 384 well plates one day prior to compound treatment. The concentrations of compounds were tested at appropriate doses ranging from 30 μM to 0.6 nM. After incubation for 48 hours, the cells were lysed with 25 μL of lysis buffer containing protease inhibitors, and total ATXN3 protein levels were assessed by Mesoscale Discovery (MSD) assay developed with one pair of anti-ATXN3 antibodies. The capture and detect antibodies were raised in mouse and rabbit respectively. Anti-rabbit MSD-ST antibody was used for secondary antibody.
ATXN3 recombinant protein was used for standards. The readouts were captured with 35 μL of MSD read buffer and multi-array 384-well high binding plates.

ATXN3-HiBiT protein = assay: ATXN3 Total Protein Assay (Kelly-ATXN3-HiBiT luminescence); assay type: cell-based; settings: Kelly-ATXN3-HiBiT cells, 48 h after addition of compound
Summary of the method: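 Endogenous ATXN3-HiBiT protein in knock-in Kelly neuroblastoma cells measured by lytic HiBiT luminescence 48 h post-compound (added 24 h after seeding 2000 cells/well). Values are fold changes relative to DMSO, with viability from a parallel CellTiter-Glo plate.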

| SMILES | IC50 [1] [nM] | IC50 (total ATXN3 protein) [nM] | EC50 (ATXN3-HiBiT protein) [nM] |
| --- | --- | --- | --- |
| C#Cc1c(C[C@@H](N)COC)oc2c(NCc3cccs3)cc(Cl)nc12 [Compound 61, 2-[(R)-2-amino-3-methoxypropyl]-5-chloro-3-ethynyl-7-thenylamino-1-oxa-4-azaindene] | 0.01 to 100 | 0.01 to 100 | 0.01 to 100 |
| C#Cc1c(C[C@H](C)N)oc2c(NCc3nccs3)cc(Cl)nc12 [Compound 62, 2-[(S)-2-aminopropyl]-5-chloro-3-ethynyl-7-{[(1,3-thiazol-2-yl)methyl]amino}-1-oxa-4-azaindene] | 101 to 500 | 101 to 500 | 0.01 to 100 |
| C#Cc1c(C[C@H](C)N)oc2c(NCc3cccs3)cc(Cl)nc12 [Compound 63, 2-[(2S)-2-aminopropyl]-5-chloro-3-ethynyl-N-(thiophen-2-ylmethyl)furo[3,2-b]pyridin-7-amine] | 0.01 to 100 | 0.01 to 100 | 0.01 to 100 |
| C#Cc1c(C[C@H](C)N)oc2c(NCc3ccco3)cc(Cl)nc12 [Compound 64, 2-[(S)-2-aminopropyl]-5-chloro-3-ethynyl-7-(furfurylamino)-1-oxa-4-azaindene] | 0.01 to 100 | 0.01 to 100 | 0.01 to 100 |
| C#Cc1c(C[C@@H](N)COC)oc2c(NCc3ccco3)cc(Cl)nc12 [Compound 66, 2-[(R)-2-amino-3-methoxypropyl]-5-chloro-3-ethynyl-7-(furfurylamino)-1-oxa-4-azaindene] | 0.01 to 100 | 0.01 to 100 | 0.01 to 100 |
| C#CC[C@H](N)Cc1oc2c(NCc3cccs3)cc(Cl)nc2c1Br [Compound 77, 2-[(S)-2-amino-4-pentynyl]-3-bromo-5-chloro-7-thenylamino-1-oxa-4-azaindene] | 0.01 to 100 | 0.01 to 100 | 0.01 to 100 |
| NC(Cc1oc2c(NCc3cccs3)cc(Cl)nc2c1Br)CC1(F)CC1 (stereo not drawn) [Compound 85, 2-[2-amino-3-(1-fluorocyclopropyl)propyl]-3-bromo-5-chloro-7-thenylamino-1-oxa-4-azaindene] | 101 to 500 | 101 to 500 | 101 to 500 |
| C#C[C@H](N)Cc1oc2c(NCc3cccs3)cc(Cl)nc2c1Br [Compound 88, 2-[(R)-2-amino-3-butynyl]-3-bromo-5-chloro-7-thenylamino-1-oxa-4-azaindene] | 0.01 to 100 | 0.01 to 100 | 101 to 500 |
| C[C@H](F)[C@H](N)Cc1oc2c(NCc3ccccc3)cc(Cl)nc2c1Br [Compound 92, 2-[(2R,3S)-2-amino-3-fluorobutyl]-7-benzylamino-3-bromo-5-chloro-1-oxa-4-azaindene] | 101 to 500 | 101 to 500 | 101 to 500 |
| C[C@@H](F)[C@H](N)Cc1oc2c(NCc3ccccc3)cc(Cl)nc2c1Br [Compound 93, 2-[(2R,3R)-2-amino-3-fluorobutyl]-7-benzylamino-3-bromo-5-chloro-1-oxa-4-azaindene] | 501 to 5000 | 501 to 5000 | 501 to 5000 |
| C[C@H](F)[C@H](N)Cc1oc2c(NCc3ccc(F)s3)cc(Cl)nc2c1Br [Compound 94, 2-[(2R,3S)-2-amino-3-fluorobutyl]-3-bromo-5-chloro-7-{[(5-fluoro-2-thienyl)methyl]amino}-1-oxa-4-azaindene] | 101 to 500 | 101 to 500 | 101 to 500 |
| C[C@@H](F)[C@H](N)Cc1oc2c(NCc3ccc(F)s3)cc(Cl)nc2c1Br [Compound 95, 2-[(2R,3R)-2-amino-3-fluorobutyl]-3-bromo-5-chloro-7-{[(5-fluoro-2-thienyl)methyl]amino}-1-oxa-4-azaindene] | 501 to 5000 | 501 to 5000 | 501 to 5000 |
| N[C@H](Cc1oc2c(NCc3cccs3)cc(Cl)nc2c1Br)C1COC1 [Compound 98, 2-[(R)-2-amino-2-(3-oxetanyl)ethyl]-3-bromo-5-chloro-7-thenylamino-1-oxa-4-azaindene] | 501 to 5000 | 501 to 5000 | 501 to 5000 |
| C[C@H](F)[C@H](N)Cc1oc2c(NCc3cccs3)cc(C#N)nc2c1Br [Compound 103, 2-[(2R,3S)-2-amino-3-fluorobutyl]-3-bromo-7-thenylamino-1-oxa-4-aza-5-indenecarbonitrile] | 101 to 500 | 101 to 500 | 101 to 500 |

Continued, values first:

| IC50 [1] [nM] | IC50 (total ATXN3 protein) [nM] | EC50 (ATXN3-HiBiT protein) [nM] | SMILES |
| --- | --- | --- | --- |
| 101 to 500 | 101 to 500 | 101 to 500 | C#Cc1c(C[C@@H](N)COC)oc2c(NCc3nccs3)cc(Cl)nc12 [Compound 65, 2-[(R)-2-amino-3-methoxypropyl]-5-chloro-3-ethynyl-7-{[(1,3-thiazol-2-yl)methyl]amino}-1-oxa-4-azaindene] |
| 0.01 to 100 | 0.01 to 100 | 0.01 to 100 | C[C@H](F)[C@H](N)Cc1oc2c(NCc3nccs3)cc(Cl)nc2c1Br [Compound 90, 2-[(2R,3S)-2-amino-3-fluorobutyl]-3-bromo-5-chloro-7-{[(1,3-thiazol-2-yl)methyl]amino}-1-oxa-4-azaindene] |
| 501 to 5000 | 501 to 5000 | 501 to 5000 | C[C@@H](F)[C@H](N)Cc1oc2c(NCc3nccs3)cc(Cl)nc2c1Br [Compound 91, 2-[(2R,3R)-2-amino-3-fluorobutyl]-3-bromo-5-chloro-7-{[(1,3-thiazol-2-yl)methyl]amino}-1-oxa-4-azaindene] |
| 101 to 500 | 101 to 500 | 101 to 500 | C[C@H](F)[C@H](N)Cc1oc2c(NCc3sccc3F)cc(Cl)nc2c1Br [Compound 96, 2-[(2R,3S)-2-amino-3-fluorobutyl]-3-bromo-5-chloro-7-{[(3-fluoro-2-thienyl)methyl]amino}-1-oxa-4-azaindene] |
| 501 to 5000 | 501 to 5000 | 501 to 5000 | C[C@@H](F)[C@H](N)Cc1oc2c(NCc3sccc3F)cc(Cl)nc2c1Br [Compound 97, 2-[(2R,3R)-2-amino-3-fluorobutyl]-3-bromo-5-chloro-7-{[(3-fluoro-2-thienyl)methyl]amino}-1-oxa-4-azaindene] |
| 101 to 500 | 501 to 5000 | 501 to 5000 | Cc1c(C[C@@H](N)[C@H](C)F)oc2c(NCc3ccc(F)s3)cc(Cl)nc12 [Compound 105, 2-[(2R,3S)-2-amino-3-fluorobutyl]-5-chloro-7-{[(5-fluoro-2-thienyl)methyl]amino}-3-methyl-1-oxa-4-azaindene] |
| 101 to 500 | 101 to 500 | 101 to 500 | Cc1c(C[C@@H](N)[C@H](C)F)oc2c(NCc3nccs3)cc(Cl)nc12 [Compound 106, 2-[(2R,3S)-2-amino-3-fluorobutyl]-5-chloro-3-methyl-7-{[(1,3-thiazol-2-yl)methyl]amino}-1-oxa-4-azaindene] |
| 101 to 500 | 501 to 5000 | 101 to 500 | Cc1c(C[C@@H](N)[C@H](C)F)oc2c(NCc3ccccc3)cc(Cl)nc12 [Compound 107, 2-[(2R,3S)-2-amino-3-fluorobutyl]-7-benzylamino-5-chloro-3-methyl-1-oxa-4-azaindene] |
| 101 to 500 | 101 to 500 | 101 to 500 | C[C@H](F)[C@H](N)Cc1oc2c(NCc3ccc(F)s3)cc(Cl)nc2c1Cl [Compound 108, 2-[(2R,3S)-2-amino-3-fluorobutyl]-3,5-dichloro-7-{[(5-fluoro-2-thienyl)methyl]amino}-1-oxa-4-azaindene] |
